One experiment concerns the target ErbB2 kinase (Homo sapiens, UniProt P04626). Nature of the experiment: Enzymatic experiment on ErbB2 (HTRF kinEASE-TK). Type of experiment: biochemical. The settings on record: ATP 4 μM; read-out: Kinase IC50 (nM) in vitro ErbB2. In outline:
(§1)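 HTRF kinEASE-TK with biotinylated TK substrate in HEPES pH 7.0 buffer containing MnCl2, MgCl2 and DTT; ErbB2 at 0.06 ng/μl with 4 μM ATP, EGFR at 0.06 units/μl with 1.65 μM ATP, 30 min at room temperature after 5 min enzyme/substrate–compound preincubation. Ten-point 3-fold dilutions; Eu antibody/SA-XL665 detection, 665/620 ratio.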
Background: TR-FRET usually uses a lanthanide donor and a delayed reading to cut background.

The next experiment relates to BT-474. Nature of the experiment: Proliferation inhibition assay in vitro, BT-474 (CellTiter-Glo). Type of experiment: cell-based. The settings on record: Homo sapiens, 72 hours, read-out: IC50(nM) cell BT-474. The method in brief:
(§2)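 Cells were seeded at 8.8×10^4 cells/mL for BT-474 or 6.6×10^4 cells/mL for N87 and grown overnight. Compound was added at 9 concentrations in duplicate for 72 h at 37 °C, 5% CO2. Viability was measured by CellTiter-Glo.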
A general note: Cellular ATP, detected with luciferase, serves as a proxy for viable cell number.

The target in the next experiment is EGFR kinase (Homo sapiens, UniProt P00533). Nature of the experiment: Enzymatic experiment on EGFR (HTRF kinEASE-TK). Type of experiment: biochemical. The settings on record: ATP 1.65 μM; read-out: Kinase IC50 (nM) in vitro EGFR. The method in brief:
as §1

Another experiment has as its system N87. Nature of the experiment: Proliferation inhibition assay in vitro, N87 (CellTiter-Glo). The settings on record: Homo sapiens; 72 hours; read-out: IC50(nM) cell N87. The format is cell-based. In outline:
as §2

By IC50 is commonly meant the concentration that inhibits the measured activity by half.

Sequence of EGFR kinase (P00533 25-1210): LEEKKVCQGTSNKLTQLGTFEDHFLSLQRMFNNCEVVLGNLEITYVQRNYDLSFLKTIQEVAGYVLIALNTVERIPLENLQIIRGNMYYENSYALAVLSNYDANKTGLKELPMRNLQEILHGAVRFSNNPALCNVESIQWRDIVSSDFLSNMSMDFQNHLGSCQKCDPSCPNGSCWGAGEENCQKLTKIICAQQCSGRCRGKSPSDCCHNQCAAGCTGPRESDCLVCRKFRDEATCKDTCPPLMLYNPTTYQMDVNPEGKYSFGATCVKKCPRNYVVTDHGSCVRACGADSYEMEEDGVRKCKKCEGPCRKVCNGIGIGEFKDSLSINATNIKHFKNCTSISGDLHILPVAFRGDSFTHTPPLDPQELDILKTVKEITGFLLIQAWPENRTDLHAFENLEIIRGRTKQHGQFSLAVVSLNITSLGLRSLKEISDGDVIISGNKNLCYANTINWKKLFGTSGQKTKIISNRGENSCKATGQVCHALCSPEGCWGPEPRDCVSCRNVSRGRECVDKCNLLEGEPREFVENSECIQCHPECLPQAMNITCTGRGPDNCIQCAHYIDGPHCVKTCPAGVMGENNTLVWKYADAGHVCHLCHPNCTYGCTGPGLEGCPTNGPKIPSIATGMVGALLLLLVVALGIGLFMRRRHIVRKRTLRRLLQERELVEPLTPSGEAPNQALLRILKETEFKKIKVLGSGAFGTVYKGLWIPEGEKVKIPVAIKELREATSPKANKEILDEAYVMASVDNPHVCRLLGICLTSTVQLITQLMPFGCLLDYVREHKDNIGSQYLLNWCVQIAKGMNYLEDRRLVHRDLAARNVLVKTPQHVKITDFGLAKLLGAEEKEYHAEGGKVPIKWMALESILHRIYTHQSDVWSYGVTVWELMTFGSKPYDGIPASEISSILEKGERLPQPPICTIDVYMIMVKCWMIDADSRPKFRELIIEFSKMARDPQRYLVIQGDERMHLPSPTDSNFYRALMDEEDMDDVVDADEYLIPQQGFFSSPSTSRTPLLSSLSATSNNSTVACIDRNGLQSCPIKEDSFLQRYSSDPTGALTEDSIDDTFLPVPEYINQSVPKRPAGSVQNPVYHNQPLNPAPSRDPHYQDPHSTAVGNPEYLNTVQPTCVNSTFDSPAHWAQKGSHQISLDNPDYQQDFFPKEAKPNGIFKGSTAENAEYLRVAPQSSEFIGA
Sequence of ErbB2 kinase (P04626 23-1255): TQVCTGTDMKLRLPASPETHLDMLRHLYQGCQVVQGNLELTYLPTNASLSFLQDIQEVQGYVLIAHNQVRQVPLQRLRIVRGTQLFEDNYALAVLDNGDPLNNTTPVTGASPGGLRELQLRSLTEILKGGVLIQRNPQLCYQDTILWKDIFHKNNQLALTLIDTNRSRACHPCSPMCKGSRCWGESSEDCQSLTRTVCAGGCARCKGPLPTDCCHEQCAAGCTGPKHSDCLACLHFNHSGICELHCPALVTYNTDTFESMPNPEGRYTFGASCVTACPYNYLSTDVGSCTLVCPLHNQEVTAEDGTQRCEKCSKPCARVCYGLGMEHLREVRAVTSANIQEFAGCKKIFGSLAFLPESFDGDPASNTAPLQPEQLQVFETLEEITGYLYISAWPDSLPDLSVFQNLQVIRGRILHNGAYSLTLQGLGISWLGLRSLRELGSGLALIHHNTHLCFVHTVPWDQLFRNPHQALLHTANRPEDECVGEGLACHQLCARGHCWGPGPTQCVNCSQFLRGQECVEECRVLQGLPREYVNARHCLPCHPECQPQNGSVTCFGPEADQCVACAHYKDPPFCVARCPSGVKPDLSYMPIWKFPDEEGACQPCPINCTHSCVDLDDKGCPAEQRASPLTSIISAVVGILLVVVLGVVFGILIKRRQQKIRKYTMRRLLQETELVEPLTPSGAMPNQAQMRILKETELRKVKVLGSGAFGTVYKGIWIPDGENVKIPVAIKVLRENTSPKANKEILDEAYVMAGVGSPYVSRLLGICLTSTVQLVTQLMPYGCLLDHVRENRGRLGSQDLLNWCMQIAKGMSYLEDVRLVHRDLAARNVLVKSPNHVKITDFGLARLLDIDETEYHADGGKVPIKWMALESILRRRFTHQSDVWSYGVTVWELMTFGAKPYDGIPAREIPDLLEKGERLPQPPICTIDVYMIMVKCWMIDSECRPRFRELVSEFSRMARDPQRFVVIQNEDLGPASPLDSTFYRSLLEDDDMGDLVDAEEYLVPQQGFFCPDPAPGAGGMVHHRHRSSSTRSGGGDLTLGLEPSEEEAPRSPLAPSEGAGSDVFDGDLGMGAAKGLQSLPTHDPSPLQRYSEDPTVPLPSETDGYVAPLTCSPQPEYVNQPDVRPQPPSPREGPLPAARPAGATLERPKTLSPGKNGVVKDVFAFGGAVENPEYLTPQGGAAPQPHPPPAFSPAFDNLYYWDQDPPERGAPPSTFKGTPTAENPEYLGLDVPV

In the case of `Cc1cc(Nc2ncnc3ccc(NC4=NC(C)(C)CO4)cc23)ccc1Oc1cc2nncn2cn1` [Embodiment 4, N^4-(4-([1,2,4]triazolo[4,3-c]pyrimidin-7-yloxy)-3-methylphenyl)-N^6-(4,4-dimethyl-4,5-dihydrooxazol-2-yl)quinazoline-4,6-diamine], the IC50 at ErbB2 kinase was determined as 2.4 nM; in the experiment with BT-474, 19.7 nM; at EGFR kinase, 44.3 nM; in the experiment on N87 it was 23 nM.

For the origin of these results see patent publication US10828305B2 (SHANGHAI PHARMACEUTICALS HOLDING CO., LTD., priority 2016, dated 2020).
